Experimental data as given in patent publication US5726041A, “Method for detecting a receptor-ligand complex using a cytochrome P450 reporter gene” (priority 1996, dated 1998).
Where two headings read alike, the source gives them in different places.

Key:
mouse PPARα = biological target: T1, mouse PPARα (Mus musculus, UniProt P23204); assay: Native PPARα / PPRE CYP2A6 reporter, coumarin 7-hydroxylase induction; details: for fold induction at 1100 µM: 1.1 mM clofibrate vs basal; for maximal fold induction: read-out: Maximum Fold Induction, clofibrate-induced CYP2A6 activity
T1 sequence (P23204 1-468): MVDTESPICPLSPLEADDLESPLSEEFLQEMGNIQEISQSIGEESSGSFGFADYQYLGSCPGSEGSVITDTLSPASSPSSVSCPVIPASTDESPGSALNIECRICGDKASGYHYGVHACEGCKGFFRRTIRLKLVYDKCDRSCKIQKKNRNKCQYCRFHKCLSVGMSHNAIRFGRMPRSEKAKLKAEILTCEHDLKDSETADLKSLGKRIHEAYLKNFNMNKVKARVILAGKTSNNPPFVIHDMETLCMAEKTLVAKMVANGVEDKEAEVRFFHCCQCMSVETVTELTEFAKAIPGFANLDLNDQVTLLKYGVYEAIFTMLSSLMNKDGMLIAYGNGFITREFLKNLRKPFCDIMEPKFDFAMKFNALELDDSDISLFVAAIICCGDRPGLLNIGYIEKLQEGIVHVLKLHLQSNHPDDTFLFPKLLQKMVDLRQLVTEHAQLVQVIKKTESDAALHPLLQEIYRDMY
Protocol: (§1) MMTV-LTR1 is native, MMTV-LTR2 is minus CpG, MMTV-LTR3 is TATA only. Orientation is relative to reporter. CH activity is pmole per 10^6 cell min. Assuming the cells double every 24 hours, the maximium cell density is 2×10^6 cells per ml, using the log average cell concentration for each day of exposure. Earliest post fusion-values were used. […] It is merely a concentration in the monotonic portion of the dose response curve which has been used consistently in many experiments.
The comparison was performed by incubating 0.2 ml cells for 3 days in the wells of a microtiter plate at an initial cell concentration of 5×10^5 cells per ml in the presence of increasing amounts of inducer and 50 uM coumarin.
(§2) In this test we used an initial cell concentration of 2 million cells/ml contained in 0.2 ml culture medium per well of a 96 well microtiter plate. Coumarin (0.05 mM) and clofibrate (concentration was an experimental variable) were added at the beginning of the incubation time. Cells were incubated for 3 days and the 7-hydroxycoumarin content in the wells was analyzed by fluorescence with excitation at 360 nm and emission at 460 nm using a Cytofluor 2350 (Millipore). […] The elevation in pH increases 7-hydroxycoumarin fluorescence by increasing the proportion of the fluorochrome which is ionized. Quantitation was achieved by comparison to a 7-hydroxycoumarin standard curve.
The ACO-PPRE constructs were centrifuged and resuspended at a density of 2 million cells per milliliter in RPMI media with 9% horse serum. One hundred microliters of the cell suspension was distributed into a total of four rows, two rows being at the opposite end of a 96 well microtiter plate. One set was labeled as clofibrate and the other set was labeled as the blank. Clofibrate was then added at concentration of 3 mM, 2 mM, 1 mM, 0.5 mM & 0 mM to the appropriate wells. Stock concentration of clofibrate was 50 mM in 75 mM NaOH. One hundred microliters of media containing 100 micromolar coumarin was then added to the clofibrate containing wells. The negative control contained cell suspension and 100 uM coumarin only. The plates were placed at […] for three days. In a distinct set of wells, one hundred microliters of hydroxy-coumarin standard was placed in two rows The concentrations are in units of pmoles and the values are: 1250, 625, 313, 156, 78, 39, 19.5 & 0. At the end of the three day incubation period, one hundred microliters of media containing 100 uM coumarin was added to the wells labeled as blank. Next 0.1M Tris pH 9.0 was distributed to the contents of each well. Fluorescence was analyzed with a cytofluor 2350 (Millipore) with excitation at 360 nm and emission at 460 nm (both filters with a 40 nm bandwidth). The net fluorence was calculated by subtracting the fluorescence of the blank wells from the fluorescence of the test wells for each clofibrate concentration. Conversion to pmole product per well was accomplished by comparison to the fluorescence of the standards. The responsiveness of the different constructs to clofibrate induction was measured immediately after viable, hygromycin resistant cells were obtained and periodically thereafter in order to evaluate the stability of the system. The data were graphed as the fold induction relative to the without clofibrate control incubation. This is a measure of the responsiveness of the system and corrects for differences in the negative control values for the different reporter constructs.

[1] = system: PPARα/GR chimeric receptors
Protocol: (§3) Cells containing chimeric receptors for the rat, mouse and human PPARα ligand binding domain and rat GR DNA binding domain, as well as control cells, were examined for CH induction by clofibrate in the presence of LPS and spironolactone during clofibrate treatment. Incubations contained 5 ug/ml E. coli lipopolysaccharide and 10 uM spironolactone and were uncorrected for cell progression. Incubations were performed under the same conditions as described above. […] Cells were grown in a volume of 0.2 ml in the wells of a 96 well microtiter plate from an initial cell density of 5×10^5 cells per ml. […] The T194, T194/T144 and T194/EH#7 cell lines contain the mouse PPARα cDNA.

hPPAR = biological target: T2, hPPAR (Homo sapiens, UniProt Q07869); assay: cell-based; details: 1.1 mM clofibrate vs basal
T2 sequence (Q07869 1-468): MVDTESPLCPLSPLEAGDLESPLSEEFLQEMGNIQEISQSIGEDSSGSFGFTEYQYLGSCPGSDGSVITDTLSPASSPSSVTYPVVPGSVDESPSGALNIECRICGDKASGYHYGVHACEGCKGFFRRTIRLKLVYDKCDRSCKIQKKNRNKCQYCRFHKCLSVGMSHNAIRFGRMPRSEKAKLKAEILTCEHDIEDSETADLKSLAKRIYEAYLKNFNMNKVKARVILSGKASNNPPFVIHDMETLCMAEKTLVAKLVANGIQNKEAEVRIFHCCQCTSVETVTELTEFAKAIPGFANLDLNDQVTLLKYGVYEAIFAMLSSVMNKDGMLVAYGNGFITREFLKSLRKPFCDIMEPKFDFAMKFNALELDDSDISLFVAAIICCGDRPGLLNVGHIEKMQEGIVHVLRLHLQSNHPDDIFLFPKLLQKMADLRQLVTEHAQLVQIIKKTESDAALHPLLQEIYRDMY
Protocol: as §1

AHH-1 TK± cells = system: AHH-1 TK± cells
Excerpt: The reporter gene expression as reported in previous tables and figures is expressed as pmoles product/well in a 96 well microtiter plate as measured fluorometrically. […] A toxicity curve reflecting the relative number of cells/well present at the end of treatment was obtained as a function of chemical concentration. […] This suppression can be corrected for by determining the cell concentration in the well or by determining the suppression of CH activity in a cell line which constitutively expresses the reporter.

[2] = system: reporter construct without PPARα; assay: CYP2A6 reporter in control cells without PPARα or chimeric receptor; details: for fold induction at 1100 µM: Homo sapiens, 1.1 mM clofibrate vs basal
Protocol: as §3, §1
The above-described assay conditions were used and the results were normalized to the respective basal expression levels.
as §2

## CCOC(=O)C(C)(C)Oc1ccc(Cl)cc1 [clofibrate]
Mouse PPARα
  CYP2A6-catalyzed coumarin 7-hydroxylase activity upon treatment of the cells: concentration dependent increase
  clofibrate-induced activity relative to background levels: 3 to 10 times
  fold induction after growth in exponential cell culture: about 2 fold
  fold induction, initial: 4 to 6 fold
  increase in CYP2A6 expression after exposure to clofibrate: greater than 10 fold
  potency rank on a molar basis: then clofibrate
  ranking of chemicals of known ability to induce peroxisome proliferation: correctly rank
  reporter gene expression, concentration response: concentration-dependent increases
  signal-to-noise ratio: about 10
Mouse PPARα; read-out: Coumarin Hydroxylase Activity Induced (Fold), cell line 7.10/T225, receptor orientation 3'-5' (HSVtk mPPAR; SV40, JCO, HSVtk#7)
  fold induction at 1100 µM: 0.9
Mouse PPARα; read-out: Coumarin Hydroxylase Activity Induced (Fold), cell line 7.3/T225, receptor orientation 3'-5' (HSVtk mPPAR; SV40, JCO, HSVtk#7)
  fold induction at 1100 µM: 0.9
Mouse PPARα; read-out: Coumarin Hydroxylase Activity Induced (Fold), cell line 7.3/T225, receptor orientation 5'-3' (HSVtk mPPAR; SV40, JCO, HSVtk#7)
  fold induction at 1100 µM: 1.5
Mouse PPARα; read-out: Coumarin Hydroxylase Activity Induced (Fold), cell line T194 (SV40 3'-5' mPPAR; HSVtk-OCT, ACO, HSVtkL15)
  fold induction at 1100 µM: 1.5
Mouse PPARα; read-out: Coumarin Hydroxylase Activity Induced (Fold), cell line T194/HSVtk#7 (SV40 3'-5' mPPAR; SV40, ACO, HSVtk#7)
  fold induction at 1100 µM: 3.3
Mouse PPARα; read-out: Coumarin Hydroxylase Activity Induced (Fold), cell line T194/T144 (SV40 3'-5' mPPAR; SV40, ACO, MMTV-LTR3)
  fold induction at 1100 µM: 1.2
Mouse PPARα; read-out: Coumarin Hydroxylase Activity Induced (Fold), cell line T247 (HSVtk 3'-5' mPPAR; HSVtk-OCT, JCO, HSVtkL15)
  fold induction at 1100 µM: 1.2
Mouse PPARα; high copy number reporter, vector T144/194, clone 6-1, sequential independent determinations
  maximal fold induction: 1.57
Mouse PPARα; high copy number reporter, vector T144/194, clone 6-3, sequential independent determinations
  maximal fold induction: 1.17
Mouse PPARα; high copy number reporter, vector T144/194, clone 6-4
  maximal fold induction: 1.36
Mouse PPARα; high copy number reporter, vector T194EH#7, clone 8-1
  maximal fold induction: 1.04
Mouse PPARα; high copy number reporter, vector T194EH#7, clone 8-5, sequential independent determinations
  maximal fold induction: 1.27
Mouse PPARα; high copy number reporter, vector T194EH#7, clone 8-11
  maximal fold induction: 1.15
Mouse PPARα; high copy number reporter, vector T194EH#7, clone 8-12
  maximal fold induction: 1.21
Mouse PPARα; high copy number reporter, vector T194EH#7, clone 8-14
  maximal fold induction: 1.15
Mouse PPARα; vector T194EH#7, clone 8-6 (probably no functional high copy reporter)
  maximal fold induction: 3.44
Mouse PPARα; vector T194EH#7, clone 8-16 (probably no functional high copy reporter)
  maximal fold induction: 3.73
[1]
  7-hydroxycoumarin production by cell lines containing the chimeras: very small but detectable, concentration-dependent increase
hPPAR; read-out: Coumarin Hydroxylase Activity Induced (Fold), cell line T248 (HSVtk 3'-5' hPPAR; HSVtk-OCT, JCO, HSVtkL15)
  fold induction at 1100 µM: 0.9
hPPAR; read-out: Coumarin Hydroxylase Activity Induced (Fold), cell line T249 (HSVtk 3'-5' hPPAR; HSVtk-OCT, JCO, HSVtkL15)
  fold induction at 1100 µM: 1.1
AHH-1 TK± cells
  difference in toxicity among cell lines: No differences in toxicity
  toxicity to the cells: toxic
[2]
  7-hydroxycoumarin production in control cells: No increase
  clofibrate induction of CH activity in cells containing the reporter alone: did not respond
  induction of 7-hydroxycoumarin production in the absence of the PPARα: no induction
[2]; read-out: Coumarin Hydroxylase Activity Induced (Fold), cell line T192 (no receptor; HSVtk-OCT, ACO, HSVtkL15)
  fold induction at 1100 µM: 0.8
[2]; read-out: Coumarin Hydroxylase Activity Induced (Fold), cell line T192/T144 (no receptor; HSVtk-OCT, ACO, MMTV-LTR3)
  fold induction at 1100 µM: 0.7
[2]; read-out: Coumarin Hydroxylase Activity Induced (Fold), cell line T245 (no receptor; HSVtk-OCT, JCO, HSVtkL15)
  fold induction at 1100 µM: 0.9
